Measurements reported in patent US11572590B2, “Methods for evaluating tumor cell spheroids using 3D microfluidic cell culture device” (Dana-Farber Cancer Institute, Inc., priority 2017, dated 2023).
Where two headings read alike, the source gives them in different places.

Assays:
Assay in all cases: SelectScreen Kinase Profiling, single point inhibition and IC50 for off-target kinases
Type in all cases: biochemical
[1] = target: off-target kinases (Homo sapiens, UniProt O00311); details: CDC7/DBF4, LanthaScreen Binding
[2] = target: T1, off-target kinases (Homo sapiens, UniProt P54762); details: EPHB1, ZLYTE, ATP Km app
T1 sequence (P54762 18-984): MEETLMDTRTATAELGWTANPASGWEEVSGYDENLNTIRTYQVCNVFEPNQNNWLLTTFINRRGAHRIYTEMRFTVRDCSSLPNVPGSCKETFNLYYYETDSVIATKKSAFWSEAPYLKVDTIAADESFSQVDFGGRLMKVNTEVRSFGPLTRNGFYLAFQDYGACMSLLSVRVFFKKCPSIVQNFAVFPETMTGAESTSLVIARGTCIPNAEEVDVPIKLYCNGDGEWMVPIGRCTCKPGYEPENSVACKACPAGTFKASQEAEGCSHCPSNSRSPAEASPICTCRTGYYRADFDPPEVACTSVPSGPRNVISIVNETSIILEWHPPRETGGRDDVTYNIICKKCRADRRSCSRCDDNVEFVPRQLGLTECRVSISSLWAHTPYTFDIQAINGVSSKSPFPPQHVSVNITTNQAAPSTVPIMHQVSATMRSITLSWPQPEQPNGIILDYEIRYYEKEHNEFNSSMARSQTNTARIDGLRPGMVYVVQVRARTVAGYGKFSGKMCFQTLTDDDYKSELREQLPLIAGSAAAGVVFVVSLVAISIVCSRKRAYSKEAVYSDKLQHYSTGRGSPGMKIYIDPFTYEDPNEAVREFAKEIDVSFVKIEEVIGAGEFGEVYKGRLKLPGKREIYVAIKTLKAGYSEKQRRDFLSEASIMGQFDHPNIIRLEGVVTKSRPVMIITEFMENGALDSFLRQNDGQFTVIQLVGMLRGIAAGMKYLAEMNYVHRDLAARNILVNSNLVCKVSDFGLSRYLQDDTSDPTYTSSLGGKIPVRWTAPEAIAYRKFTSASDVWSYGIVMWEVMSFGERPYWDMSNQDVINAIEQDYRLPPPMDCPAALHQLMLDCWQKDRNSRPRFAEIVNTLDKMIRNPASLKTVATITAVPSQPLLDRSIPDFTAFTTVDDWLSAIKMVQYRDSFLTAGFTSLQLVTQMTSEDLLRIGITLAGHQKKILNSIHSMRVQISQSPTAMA

[3] = target: off-target kinases (Homo sapiens, UniProt Q9H422); details: HIPK3 (YAK1), ZLYTE, ATP Km app
[4] = target: off-target kinases (Homo sapiens, UniProt Q9UM73, F1174L); details: ALK F1174L, mutant y, LanthaScreen Binding
off-target kinases (Homo sapiens, UniProt Q9UM73, F1174L), sequence (Q9UM73 19-1620 F1174L): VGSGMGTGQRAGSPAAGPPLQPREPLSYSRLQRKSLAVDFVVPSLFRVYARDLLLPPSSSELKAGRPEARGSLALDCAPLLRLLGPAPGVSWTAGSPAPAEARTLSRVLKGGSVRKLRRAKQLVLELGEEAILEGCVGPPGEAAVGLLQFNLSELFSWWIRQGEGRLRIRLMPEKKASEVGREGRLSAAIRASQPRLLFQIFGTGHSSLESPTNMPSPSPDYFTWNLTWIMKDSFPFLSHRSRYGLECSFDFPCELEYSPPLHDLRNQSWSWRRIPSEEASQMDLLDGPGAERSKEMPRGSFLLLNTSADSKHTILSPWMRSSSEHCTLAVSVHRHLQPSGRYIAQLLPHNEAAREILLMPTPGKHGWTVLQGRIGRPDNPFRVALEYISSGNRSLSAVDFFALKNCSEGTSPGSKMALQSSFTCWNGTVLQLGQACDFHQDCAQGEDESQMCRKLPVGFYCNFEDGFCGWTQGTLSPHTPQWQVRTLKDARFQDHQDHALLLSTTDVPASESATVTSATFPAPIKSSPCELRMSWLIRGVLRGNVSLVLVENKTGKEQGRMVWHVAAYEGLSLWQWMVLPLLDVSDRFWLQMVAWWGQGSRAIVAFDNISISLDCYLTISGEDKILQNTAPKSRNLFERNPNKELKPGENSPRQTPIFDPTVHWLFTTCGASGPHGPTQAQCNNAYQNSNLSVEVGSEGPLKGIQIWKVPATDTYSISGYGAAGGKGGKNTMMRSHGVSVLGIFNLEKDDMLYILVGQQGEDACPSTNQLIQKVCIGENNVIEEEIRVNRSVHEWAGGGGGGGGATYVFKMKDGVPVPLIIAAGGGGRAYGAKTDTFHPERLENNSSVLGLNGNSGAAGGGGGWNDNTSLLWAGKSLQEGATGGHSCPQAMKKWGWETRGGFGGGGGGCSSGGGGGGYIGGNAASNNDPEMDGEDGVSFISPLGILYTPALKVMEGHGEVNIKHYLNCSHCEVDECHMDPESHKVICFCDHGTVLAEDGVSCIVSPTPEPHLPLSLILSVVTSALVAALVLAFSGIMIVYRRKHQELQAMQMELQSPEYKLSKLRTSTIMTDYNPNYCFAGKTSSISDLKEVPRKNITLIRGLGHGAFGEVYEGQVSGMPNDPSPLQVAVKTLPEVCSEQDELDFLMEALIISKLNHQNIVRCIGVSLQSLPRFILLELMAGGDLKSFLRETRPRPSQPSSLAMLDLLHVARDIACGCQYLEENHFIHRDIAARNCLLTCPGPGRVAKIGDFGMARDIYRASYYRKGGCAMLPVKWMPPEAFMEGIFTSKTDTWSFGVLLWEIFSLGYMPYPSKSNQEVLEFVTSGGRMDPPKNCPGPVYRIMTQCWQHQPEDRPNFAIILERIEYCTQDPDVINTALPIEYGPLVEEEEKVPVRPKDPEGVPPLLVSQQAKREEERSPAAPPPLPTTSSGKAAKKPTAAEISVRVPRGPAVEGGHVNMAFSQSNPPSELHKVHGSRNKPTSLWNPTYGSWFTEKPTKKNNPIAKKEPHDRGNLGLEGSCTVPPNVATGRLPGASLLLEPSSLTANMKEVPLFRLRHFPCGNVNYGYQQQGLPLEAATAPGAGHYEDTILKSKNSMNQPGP

off-target kinases (Homo sapiens, UniProt O00311), sequence (O00311 whole entry): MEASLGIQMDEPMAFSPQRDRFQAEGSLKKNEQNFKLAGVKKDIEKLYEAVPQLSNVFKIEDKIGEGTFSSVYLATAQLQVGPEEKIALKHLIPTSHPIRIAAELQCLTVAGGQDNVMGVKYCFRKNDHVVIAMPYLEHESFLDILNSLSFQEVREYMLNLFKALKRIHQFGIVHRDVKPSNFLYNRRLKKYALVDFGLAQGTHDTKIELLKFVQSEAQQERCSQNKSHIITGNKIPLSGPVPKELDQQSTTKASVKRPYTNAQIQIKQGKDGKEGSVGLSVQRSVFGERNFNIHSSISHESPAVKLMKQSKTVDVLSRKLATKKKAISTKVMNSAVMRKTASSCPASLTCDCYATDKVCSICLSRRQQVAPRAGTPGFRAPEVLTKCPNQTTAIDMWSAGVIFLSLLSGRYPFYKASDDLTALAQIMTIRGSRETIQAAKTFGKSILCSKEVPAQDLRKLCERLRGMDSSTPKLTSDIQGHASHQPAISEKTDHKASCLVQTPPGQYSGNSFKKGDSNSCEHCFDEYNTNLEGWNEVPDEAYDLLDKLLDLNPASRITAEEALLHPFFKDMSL
off-target kinases (Homo sapiens, UniProt Q9H422), sequence (Q9H422 whole entry): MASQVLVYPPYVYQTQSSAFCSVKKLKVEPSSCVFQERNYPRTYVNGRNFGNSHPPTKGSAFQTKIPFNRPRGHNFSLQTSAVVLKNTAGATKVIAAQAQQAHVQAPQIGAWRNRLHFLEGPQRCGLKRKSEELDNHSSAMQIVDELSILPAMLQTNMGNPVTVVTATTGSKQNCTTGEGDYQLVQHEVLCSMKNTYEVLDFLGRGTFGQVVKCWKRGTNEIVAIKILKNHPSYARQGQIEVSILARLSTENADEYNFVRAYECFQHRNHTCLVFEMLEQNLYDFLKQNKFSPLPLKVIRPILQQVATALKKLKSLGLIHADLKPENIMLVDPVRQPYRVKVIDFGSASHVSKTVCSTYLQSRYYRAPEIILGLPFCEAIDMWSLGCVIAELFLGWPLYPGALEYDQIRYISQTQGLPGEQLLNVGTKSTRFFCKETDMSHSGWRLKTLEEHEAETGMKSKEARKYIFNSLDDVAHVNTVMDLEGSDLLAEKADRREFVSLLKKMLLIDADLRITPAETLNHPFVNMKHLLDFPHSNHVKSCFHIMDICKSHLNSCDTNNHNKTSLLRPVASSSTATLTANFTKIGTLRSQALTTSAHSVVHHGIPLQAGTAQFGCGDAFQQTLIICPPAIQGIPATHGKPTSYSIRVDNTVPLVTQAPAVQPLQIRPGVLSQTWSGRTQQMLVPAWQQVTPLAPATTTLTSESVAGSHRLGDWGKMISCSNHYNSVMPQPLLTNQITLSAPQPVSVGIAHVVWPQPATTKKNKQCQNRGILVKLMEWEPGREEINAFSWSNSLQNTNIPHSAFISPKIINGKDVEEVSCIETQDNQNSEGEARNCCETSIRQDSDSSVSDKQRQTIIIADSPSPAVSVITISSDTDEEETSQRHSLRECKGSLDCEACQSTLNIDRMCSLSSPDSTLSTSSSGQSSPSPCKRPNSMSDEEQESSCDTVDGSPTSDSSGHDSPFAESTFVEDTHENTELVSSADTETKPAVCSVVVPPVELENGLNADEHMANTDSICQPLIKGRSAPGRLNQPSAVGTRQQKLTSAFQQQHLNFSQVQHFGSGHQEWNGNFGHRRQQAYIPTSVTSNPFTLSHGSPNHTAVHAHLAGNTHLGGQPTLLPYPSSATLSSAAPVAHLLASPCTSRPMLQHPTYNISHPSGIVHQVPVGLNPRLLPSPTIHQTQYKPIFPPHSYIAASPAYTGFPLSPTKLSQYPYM

## N#Cc1cc(-c2ncnc(Nc3ccc(N4CCN(C5COC5)CC4)cc3)n2)ccc1OC1CCOCC1 [Compound 1, 5-(4-((4-(4-(oxetan-3-yl)piperazin-1-yl)phenyl)amino)-1,3,5-triazin-2-yl)-2-((tetrahydro-2H-pyran-4-yl)oxy)benzonitrile]
[1]; read-out: % Inhibition 1
  inhibition: 100%
[1]; read-out: % Inhibition 2
  inhibition: 97%
[1]; read-out: % Inhibition Avg
  inhibition: 98%
[2]; read-out: % Inhibition 1
  inhibition: 34%
[2]; read-out: % Inhibition 2
  inhibition: 31%
[2]; read-out: % Inhibition Avg
  inhibition: 33%
[3]; read-out: % Inhibition 1
  inhibition: 15%
[3]; read-out: % Inhibition 2
  inhibition: 11%
[3]; read-out: % Inhibition Avg
  inhibition: 13%
[4]; read-out: % Inhibition 1
  inhibition: 12%
[4]; read-out: % Inhibition 2
  inhibition: 14%
[4]; read-out: % Inhibition Avg
  inhibition: 13%
